Measurements: patent US7592477B2, “Substituted methylene amide derivatives as modulators of protein tyrosine phosphatases (PTPs)” (Laboratoires Serono SA, priority 2002, dated 2009)

How the values were obtained:
[1] = molecular target: T1, SHP-2 (Homo sapiens, UniProt Q06124); assay: PTP Enzyme Assay (DiFMUP), SHP-2; type: biochemical; conditions: 20 λM DiFMUP; read-out: IC50 value in respect of SHP-2
T1 construct: using the catalytic core of a human recombinant PTP as the enzyme
T1 sequence (Q06124 247-517 limits assumed): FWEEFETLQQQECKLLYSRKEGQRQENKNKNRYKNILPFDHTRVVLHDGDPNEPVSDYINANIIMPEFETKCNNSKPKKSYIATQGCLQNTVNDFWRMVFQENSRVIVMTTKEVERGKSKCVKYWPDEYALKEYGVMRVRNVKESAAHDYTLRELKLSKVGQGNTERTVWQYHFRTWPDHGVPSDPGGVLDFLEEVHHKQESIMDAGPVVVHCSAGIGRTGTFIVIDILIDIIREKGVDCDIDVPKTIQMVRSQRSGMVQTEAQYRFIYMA
Experimental: (§1) The PTP Enzyme Assay aims at determining the extent of inhibition of PTPs, e.g. of PTP1B, SHP-1, SHP-2 or GLEPP-1 in the presence of a test compound of formula (I). The inhibition is illustrated by IC50 values which denote the concentration of test compound necessary to achieve an inhibition of 50% of said PTP's using the following concentration of the PTP substrate DiFMUP: • 5 μM DiFMUP for PTP1B; • 20 […] DiFMUP for SHP-1 and SHP-2; • 30 μM DiFMUP for GLEPP-1. a) PTPs Cloning […]
(§2) Assays were performed in a 96 well plate format, using the catalytic core of a human recombinant PTP as the enzyme and 6,8-DiFluoro-4-MethylUmbelliferyl Phosphate (DiFMUP, Molecular Probes, D-6567) as a substrate. […] The reaction ran for 30 minutes at room temperature before reading the fluorescence intensity (integral or intensity) on a Perkin-Elmer Victor 2 spectrofluorimeter (excitation of 6,8-difluoro-7-hydroxy coumarin is at 355 nm, the emission at 460 nm, for 0.1 s). The percentage of inhibition is determined by measuring the relative fluorescence ion absence of a test compound (PTP inhibitor), i.e. with the solvent alone (5% DMSO). The IC50 values for inhibition were determined in triplicates.

[2] = system: db/db mice; assay: In vivo assay in db/db mice (postprandial glycemia); conditions: 4 hrs after drug administration
Experimental: The following assay aims at determining the anti-diabetic effect of the test compounds of formula (I) in a model of postprandial glycemia in db/db mice, in vivo.
A total of 24 db/db mice (about 8-9 weeks; obtained from IFFACREDO, l'Arbreste, France) were fasted during 20 hours.
4 groups, each consisting of 6 animals were formed:
Group 1: The animals were administered (per os) a dose of […] of vehicle.
Group 2: The animals were administered (per os) a dose of 20 mg/kg of the test compound according to formula (I).
Group 3: The animals were administered (per os) a dose of 100 mg/kg of the test compound according to formula (I).
Group 4: The animals were administered (per os) a dose of 200 mg/kg of the test compound according to formula (I).
After oral administration of the compounds of formula (I) solubilized or suspended in CarboxyMethylCellulose (0.5%), Tween 20 (0.25%) and water as vehicle, the animals had access to commercial food (D04, UAR, Villemoisson/Orge, France) ad libitum. The diabetic state of the mice was verified by determining the blood glucose level before drug administration. Blood glucose and serum insulin levels were then determined 4 hrs after drug administration.
The determination of the blood glucose level was performed using a glucometer (Precision Q.I.D., Medisense, Abbot, ref. 212.62.31).
The determination of the Insulin level was performed using an ELISA kit (Crystal CHEM, Ref. INSK R020).
Changes in blood glucose and serum insulin of drug treated mice were expressed as a percentage of control (group 1: vehicle treated mice).

[3] = molecular target: T2, SHP-1 (Homo sapiens, UniProt P29350); assay: PTP Enzyme Assay (DiFMUP), SHP-1; type: biochemical; conditions: 20 λM DiFMUP; read-out: IC50 value in respect of SHP-1
T2 construct: using the catalytic core of a human recombinant PTP as the enzyme
T2 sequence (P29350 244-515 limits assumed): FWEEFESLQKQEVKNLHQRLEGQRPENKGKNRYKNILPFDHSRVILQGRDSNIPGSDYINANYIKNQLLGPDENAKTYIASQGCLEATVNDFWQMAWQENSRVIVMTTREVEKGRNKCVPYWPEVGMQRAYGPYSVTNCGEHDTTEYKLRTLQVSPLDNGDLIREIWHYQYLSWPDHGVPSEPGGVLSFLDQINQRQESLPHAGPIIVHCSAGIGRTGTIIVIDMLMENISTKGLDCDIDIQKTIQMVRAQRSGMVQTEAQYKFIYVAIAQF
Experimental: as §1, §2

[4] = molecular target: T3, GLEPP-1 (Homo sapiens, UniProt Q16827); assay: PTP Enzyme Assay (DiFMUP), GLEPP-1; type: biochemical; conditions: 30 μM DiFMUP; read-out: IC50 value in respect of GLEPP-1
T3 construct: using the catalytic core of a human recombinant PTP as the enzyme
T3 sequence (Q16827 938-1195 limits assumed): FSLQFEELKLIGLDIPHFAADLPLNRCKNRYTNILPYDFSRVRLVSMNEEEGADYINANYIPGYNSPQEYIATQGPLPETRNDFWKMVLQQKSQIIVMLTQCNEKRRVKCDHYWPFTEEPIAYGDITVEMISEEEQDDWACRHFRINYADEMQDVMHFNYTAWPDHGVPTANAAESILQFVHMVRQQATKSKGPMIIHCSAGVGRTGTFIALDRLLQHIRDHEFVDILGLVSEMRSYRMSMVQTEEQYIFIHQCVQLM
Experimental: as §1, §2

[5] = molecular target: T4, PTP1B (Homo sapiens, UniProt P18031); assay: PTP Enzyme Assay (DiFMUP), PTP1B; type: biochemical; conditions: 5 μM DiFMUP; read-out: IC50 value in respect of PTP1B
T4 construct: The cloning and expression of the catalytic domain of PTPIB, may be performed as described in J. Biol. Chem. 2000; made in house
T4 sequence (P18031 3-277 limits assumed): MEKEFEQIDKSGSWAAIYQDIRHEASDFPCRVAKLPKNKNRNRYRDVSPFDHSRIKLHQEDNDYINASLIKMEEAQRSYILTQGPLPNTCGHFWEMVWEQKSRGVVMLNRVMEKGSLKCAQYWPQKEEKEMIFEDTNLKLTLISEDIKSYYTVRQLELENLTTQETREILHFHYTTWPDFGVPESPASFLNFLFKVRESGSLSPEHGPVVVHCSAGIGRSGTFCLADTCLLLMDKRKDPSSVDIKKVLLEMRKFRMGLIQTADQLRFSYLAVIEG
Experimental: The PTP Enzyme Assay aims at determining the extent of inhibition of PTPs, e.g. of PTP1B, SHP-1, SHP-2 or GLEPP-1 in the presence of a test compound of formula (I). The inhibition is illustrated by IC50 values which denote the concentration of test compound necessary to achieve an inhibition of 50% of said PTP's using the following concentration of the PTP substrate DiFMUP: • 5 μM DiFMUP for PTP1B; • 20 […] DiFMUP for SHP-1 and SHP-2; • 30 μM DiFMUP for GLEPP-1. a) PTPs Cloning
The cloning and expression of the catalytic domain of PTPIB, may be performed as described in J. Biol. Chem. 2000, 275(13), pp 9792-9796. […]
as §2

[6] = Group 2: db/db mice, per os 20 mg/kg
[7] = Group 3: db/db mice, per os 100 mg/kg
[8] = Group 4: db/db mice, per os 200 mg/kg

IC50 [1] | IC50 [3] | IC50 [4] | IC50 [5] | SMILES | Decrease in blood glucose [2, 6] | Decrease in serum insulin [2, 6] | Decrease in blood glucose [2, 7] | Decrease in serum insulin [2, 7] | Decrease in blood glucose [2, 8] | Decrease in serum insulin [2, 8]
2700 nM | 2400 nM | 1400 nM | 2220 nM | CCCCCCCCCCCCNC(=O)c1ccc(CN(Cc2ccc(C(F)(F)F)cc2)C(=O)C(=O)O)cc1 [Example 10, {{4-[(dodecylamino)carbonyl]benzyl}[4-(trifluoromethyl)benzyl]amino}(oxo)acetic acid] | 17 percentage of control | −2 percentage of control | 42 percentage of control | 66 percentage of control | 48 percentage of control | 89 percentage of control
1400 nM | 1000 nM | 500 nM |  | CCCCCCCCCCCCCCCNC(=O)c1ccc(CN(Cc2ccc(C(F)(F)F)cc2)C(=O)C(=O)O)cc1 [Example 4, oxo{{4-[(pentadecylamino)carbonyl]benzyl}[4-(trifluoromethyl)benzyl]amino}acetic acid] |  |  |  |  |  | 
